From US9108944B2, “Androgen receptor modulators and uses thereof” (ARAGON PHARMACEUTICALS, INC., priority 2010, dated 2015)
pIC50: −log10 of the molar value.

The compounds below were run against T1, AR-VP16 (Homo sapiens, UniProt P10275) (assay: AR-VP16 DNA Binding Assay, antagonist mode (HepG2 cells, 0.1 nM R1881)).
T1 sequence (P10275 560-920 limits assumed): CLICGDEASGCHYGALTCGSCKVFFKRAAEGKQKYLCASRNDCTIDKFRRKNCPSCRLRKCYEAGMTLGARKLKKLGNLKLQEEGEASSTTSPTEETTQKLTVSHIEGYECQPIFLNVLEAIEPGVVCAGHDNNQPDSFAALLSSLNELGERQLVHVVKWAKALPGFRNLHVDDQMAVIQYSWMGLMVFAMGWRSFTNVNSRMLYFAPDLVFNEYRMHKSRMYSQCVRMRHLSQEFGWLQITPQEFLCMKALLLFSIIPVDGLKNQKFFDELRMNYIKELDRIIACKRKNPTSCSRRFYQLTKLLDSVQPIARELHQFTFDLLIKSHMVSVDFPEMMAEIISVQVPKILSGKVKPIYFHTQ
Assay type: cell-based
Protocol: Cells were transiently transfected using Lipofectin (Life Technologies) according to the manufacturer's protocol. […] Transfected cells were incubated overnight then treated with ligand. […] For antagonist assays, the compounds were serially diluted and 50 μL of compound with RPMI supplemented with charcoal stripped serum plus methyltrienolone (R1881) were added to the cells. The final R1881 concentration used in the antagonist assays was 0.1 nM. Following 48 hour incubation the medium was removed and the cells were lysed in 40 μL of lysis buffer (25 mM Tris Phosphate, 2 mM CDTA, 10% Glycerol, 0.5% Triton X-100, 2 mM DTT).
`N#Cc1ncc(N2C(=O)C3(CCC3)N(c3ccc4[nH]ncc4c3)C2=S)cc1C(F)(F)F` [Compound 87, 5-(5-(1H-Indazol-5-yl)-8-oxo-6-thioxo-5,7-diazaspiro[3.4]octan-7-yl)-3-(trifluoromethyl)picolinonitrile] showed a pIC50 of over 6.00. In the case of `N#Cc1ncc(N2C(=O)C3(CCC3)N(c3cccc(CO)c3)C2=S)cc1C(F)(F)F` [Compound 67, 5-(5-(3-(Hydroxymethyl)phenyl)-8-oxo-6-thioxo-5,7-diazaspiro[3.4]octan-7-yl)-3-(trifluoromethyl)picolinonitrile], the pIC50 was over 6.00. `N#Cc1ccc(N2C(=O)C3(CCC3)N(c3ccc(OCCc4ccccn4)c(F)c3)C2=S)c2cccnc12` [Compound 172, 5-(5-(3-Fluoro-4-(2-(pyridin-2-yl)ethoxy)phenyl)-8-oxo-6-thioxo-5,7-diazaspiro[3.4]octan-7-yl)quinoline-8-carbonitrile] showed a pIC50 of over 6.00. `CC(C)(C)NC(=O)c1ccc(N2C(=S)N(c3cnc(C#N)c(C(F)(F)F)c3)C(=O)C23CCC3)cc1F` [Compound 286, N-(tert-Butyl)-4-(7-(6-cyano-5-(trifluoromethyl)pyridin-3-yl)-8-oxo-6-thioxo-5,7-diazaspiro[3.4]octan-5-yl)-2-fluorobenzamide] gave a pIC50 of over 6.00. For `N#Cc1ncc(N2C(=O)C3(CCC3)N(c3ccc(-c4cccnc4)cc3)C2=S)cc1C(F)(F)F` [Compound 17, 5-(8-Oxo-5-(4-(pyridin-3-yl)phenyl)-6-thioxo-5,7-diazaspiro[3.4]octan-7-yl)-3-(trifluoromethyl)picolinonitrile], the pIC50 was over 6.00. Compound `N#Cc1ncc(N2C(=O)C3(CCC3)N(c3ccc(OCc4ccccn4)c(F)c3)C2=S)cc1C(F)(F)F` [Compound 147, 5-(5-(3-Fluoro-4-(pyridin-2-ylmethoxy)phenyl)-8-oxo-6-thioxo-5,7-diazaspiro[3.4]octan-7-yl)-3-(trifluoromethyl)picolinonitrile] has a pIC50 of over 6.00. `CC(C)(C)OC(=O)N1CCN(c2ccc(N3C(=S)N(c4cnc(C#N)c(C(F)(F)F)c4)C(=O)C34CCC4)cc2)CC1` [Compound 119, tert-Butyl 4-(4-(7-(6-cyano-5-(trifluoromethyl)pyridin-3-yl)-8-oxo-6-thioxo-5,7-diazaspiro[3.4]octan-5-yl)phenyl)piperazine-1-carboxylate] was tested, and the pIC50 was over 6.00. In the case of `N#Cc1ncc(N2C(=O)C3(CCC3)N(c3ccc(OCCCC(F)(F)C(F)(F)F)c(F)c3)C2=S)cc1C(F)(F)F` [Compound 134, 5-(5-(3-Fluoro-4-((4,4,5,5,5-pentafluoropentyl)oxy)phenyl)-8-oxo-6-thioxo-5,7-diazaspiro[3.4]octan-7-yl)-3-(trifluoromethyl)picolinonitrile], the pIC50 was over 6.00. In the case of `N#Cc1ncc(N2C(=O)C3(CCC3)N(c3ccc(C(=O)NCc4cccnc4)c(F)c3)C2=S)cc1C(F)(F)F` [Compound 265, 4-(7-(6-Cyano-5-(trifluoromethyl)pyridin-3-yl)-8-oxo-6-thioxo-5,7-diazaspiro[3.4]octan-5-yl)-2-fluoro-N-(pyridin-3-ylmethyl)benzamide], the pIC50 was over 6.00. For `N#Cc1ncc(N2C(=O)C3(CCC3)N(c3ccc(OCCCc4cccnc4)c(F)c3)C2=S)cc1C(F)(F)F` [Compound 145, 5-(5-(3-Fluoro-4-(3-(pyridin-3-yl)propoxy)phenyl)-8-oxo-6-thioxo-5,7-diazaspiro[3.4]octan-7-yl)-3-(trifluoromethyl)picolinonitrile], the pIC50 was over 6.00. Work on `C#CCNC(=O)c1ccc(N2C(=S)N(c3cnc(C#N)c(C(F)(F)F)c3)C(=O)C23CCC3)cc1F` [Compound 281, 4-(7-(6-Cyano-5-(trifluoromethyl)pyridin-3-yl)-8-oxo-6-thioxo-5,7-diazaspiro[3.4]octan-5-yl)-2-fluoro-N-(prop-2-yn-1-yl)benzamide] yielded a pIC50 of over 6.00. With `CNC(=O)c1ccc(N2C(=S)N(c3cnc(C#N)c(C(F)(F)F)c3)C(=O)C23CCC3)cc1` [Compound 79, 4-(7-(6-Cyano-5-(trifluoromethyl)pyridin-3-yl)-8-oxo-6-thioxo-5,7-diazaspiro[3.4]octan-5-yl)-N-methylbenzamide] the pIC50 was over 6.00. With `CN1CCC(Oc2ccc(N3C(=S)N(c4cnc(C#N)c(C(F)(F)F)c4)C(=O)C3(C)C)cc2)CC1` [Compound 196, 5-(4,4-Dimethyl-3-(4-((1-methylpiperidin-4-yl)oxy)phenyl)-5-oxo-2-thioxoimidazolidin-1-yl)-3-(trifluoromethyl)picolinonitrile] the pIC50 was over 6.00. Compound `CNC(=O)c1ccc(N2C(=S)N(c3cnc(C#N)c(Cl)c3)C(=O)C23CCC3)cc1F` [Compound 58, 4-(7-(5-Chloro-6-cyanopyridin-3-yl)-8-oxo-6-thioxo-5,7-diazaspiro[3.4]octan-5-yl)-2-fluoro-N-methylbenzamide] has a pIC50 of over 6.00. `N#Cc1ncc(N2C(=O)C3(CCC3)N(c3ccc(Oc4ncccn4)cc3)C2=S)cc1C(F)(F)F` [Compound 206, 5-(8-Oxo-5-(4-(pyrimidin-2-yloxy)phenyl)-6-thioxo-5,7-diazaspiro[3.4]octan-7-yl)-3-(trifluoromethyl)picolinonitrile] showed a pIC50 of over 6.00. `CCCNC(=O)c1ccc(N2C(=S)N(c3cnc(C#N)c(C(F)(F)F)c3)C(=O)C23CCC3)cc1F` [Compound 278, 4-(7-(6-Cyano-5-(trifluoromethyl)pyridin-3-yl)-8-oxo-6-thioxo-5,7-diazaspiro[3.4]octan-5-yl)-2-fluoro-N-propylbenzamide] was tested, and the pIC50 was over 6.00. `N#Cc1ccc(N2C(=O)C3(CCC3)N(c3ccc(O)c(F)c3)C2=S)c2cccnc12` [Compound 55, 5-(5-(3-Fluoro-4-hydroxyphenyl)-8-oxo-6-thioxo-5,7-diazaspiro[3.4]octan-7-yl)quinoline-8-carbonitrile] was tested, and the pIC50 was over 6.00. `N#Cc1ncc(N2C(=O)C3(CCC3)N(c3ccc(Br)c(F)c3)C2=S)cc1C(F)(F)F` [Compound 4, 5-(5-(4-Bromo-3-fluorophenyl)-8-oxo-6-thioxo-5,7-diazaspiro[3.4]octan-7-yl)-3-(trifluoromethyl)picolinonitrile] gave a pIC50 of over 6.00. For `Cc1ccc(N2C(=S)N(c3cc(C#N)n(C)c3)C(=O)C23CCC3)cc1` [Compound 114, 1-Methyl-4-(8-oxo-6-thioxo-5-(p-tolyl)-5,7-diazaspiro[3.4]octan-7-yl)-1H-pyrrole-2-carbonitrile], the pIC50 was under 6.00. In the case of `CS(=O)(=O)c1ccc(N2C(=S)N(c3cnc(C#N)c(C(F)(F)F)c3)C(=O)C23CCC3)cc1` [Compound 80, 5-(5-(4-(Methylsulfonyl)phenyl)-8-oxo-6-thioxo-5,7-diazaspiro[3.4]octan-7-yl)-3-(trifluoromethyl)picolinonitrile], the pIC50 was over 6.00. Work on `Cc1cc(N2C(=O)C3(CCC3)N(c3ccc(OC4CCOCC4)cc3)C2=S)cnc1C#N` [Compound 194, 3-Methyl-5-(8-oxo-5-(4-((tetrahydro-2H-pyran-4-yl)oxy)phenyl)-6-thioxo-5,7-diazaspiro[3.4]octan-7-yl)picolinonitrile] yielded a pIC50 of over 6.00. `Cc1cc(N2C(=O)C3(CCC3)N(c3ccc(N(C)C4CCN(C)CC4)cc3)C2=S)cnc1C#N` [Compound 102, 3-Methyl-5-(5-(4-(methyl(1-methylpiperidin-4-yl)amino)phenyl)-8-oxo-6-thioxo-5,7-diazaspiro[3.4]octan-7-yl)picolinonitrile] was tested, and the pIC50 was under 6.00. In the case of `CN1CCN(C(=O)COc2ccc(N3C(=S)N(c4cnc(C#N)c(C(F)(F)F)c4)C(=O)C34CCC4)cc2F)CC1` [Compound 309, 5-(5-(3-Fluoro-4-(2-(4-methylpiperazin-1-yl)-2-oxoethoxy)phenyl)-8-oxo-6-thioxo-5,7-diazaspiro[3.4]octan-7-yl)-3-(trifluoromethyl)picolinonitrile], the pIC50 was over 6.00. In the case of `N#Cc1ncc(N2C(=O)C3(CCC3)N(c3ccc(C(=O)NCCCc4ccccc4)c(F)c3)C2=S)cc1C(F)(F)F` [Compound 258, 4-(7-(6-Cyano-5-(trifluoromethyl)pyridin-3-yl)-8-oxo-6-thioxo-5,7-diazaspiro[3.4]octan-5-yl)-2-fluoro-N-(3-phenylpropyl)benzamide], the pIC50 was over 6.00. Compound `Cc1ccc(N2C(=S)N(c3ccc4nnc(C(F)(F)F)n4n3)C(=O)C23CCC3)cc1` [Compound 30, 6-Thioxo-5-(p-tolyl)-7-(3-(trifluoromethyl)-[1,2,4]triazolo[4,3-b]pyridazin-6-yl)-5,7-diazaspiro[3.4]octan-8-one] has a pIC50 of over 6.00. Compound `N#Cc1ncc(N2C(=O)C3(CCC3)N(c3ccc(-c4ccccc4)cc3)C2=S)cc1C(F)(F)F` [Compound 13, 5-(5-([1,1′-Biphenyl]-4-yl)-8-oxo-6-thioxo-5,7-diazaspiro[3.4]octan-7-yl)-3-(trifluoromethyl)picolinonitrile] has a pIC50 of over 6.00. In the case of `N#Cc1ncc(N2C(=O)C3(CCC3)N(c3ccc(OCCCOCc4ccccc4)c(F)c3)C2=S)cc1C(F)(F)F` [Compound 135, 5-(5-(4-(3-(Benzyloxy)propoxy)-3-fluorophenyl)-8-oxo-6-thioxo-5,7-diazaspiro[3.4]octan-7-yl)-3-(trifluoromethyl)picolinonitrile], the pIC50 was over 6.00. Work on `CC1(C)C(=O)N(c2cnc(C#N)c(C(F)(F)F)c2)C(=S)N1c1ccc(O)cc1` [Compound 100, 5-(3-(4-Hydroxyphenyl)-4,4-dimethyl-5-oxo-2-thioxoimidazolidin-1-yl)-3-(trifluoromethyl)picolinonitrile] yielded a pIC50 of over 6.00.
